Results on 5 molecules are retold here after patent US20240409585A1, “MACROCYCLIC IMMUNOMODULATORS” (priority 2021, published 2024).

Read-outs that look alike come from different tables or passages of the source. Numbered stars: 1 amine (or outer) side, 2 acyl side, 3 side chain; on linkers, the order of the positions; unused ones are H or OH. Bridge positions count the residues as written; N and C are the ends. Square brackets hold non-standard residues; d marks the D form. Peptide text beside a SMILES is read from it. * marks the point of attachment. Bip(4'-COOH) = N[C@@H](Cc1ccc(-c2ccc(C(=O)O)cc2)cc1)C(=O)O; Bip(4'-NHAc) = CC(=O)Nc1ccc(-c2ccc(C[C@H](N)C(=O)O)cc2)cc1; Phe(3-CF3) = N[C@@H](Cc1cccc(C(F)(F)F)c1)C(=O)O; Ala(morpholin-4-yl) = N[C@@H](CN1CCOCC1)C(=O)O; Phe(4-COOH) = N[C@@H](Cc1ccc(C(=O)O)cc1)C(=O)O; X53 = O=C([C@H](Cc1cc(F)c(F)cc1F)N[*:1])[*:2]; Bip = N[C@@H](Cc1ccc(-c2ccccc2)cc1)C(=O)O; Abu(3R-NH2) = C[C@@H](N)[C@H](N)C(=O)O; Phe(2-Cl) = N[C@@H](Cc1ccccc1Cl)C(=O)O; Phe(3-Me) = Cc1cccc(C[C@H](N)C(=O)O)c1; Val(3-OH) = CC(C)(O)[C@H](N)C(=O)O; Cha = N[C@@H](CC1CCCCC1)C(=O)O; Carboxymethyl = O=C(O)C*; NMeA = CN[C@@H](C)C(=O)O; Orn = NCCC[C@H](N)C(=O)O; Dab = NCC[C@H](N)C(=O)O

The target in the assay is T1, Alexa fluor-647 labeled human PD-L1-Ig binding to Jurkat cell line over-expressing human PD-1 (Homo sapiens, UniProt Q15116).
T1 construct: expressed in transfected cells; host or cells: Jurkat
T1 sequence (Q15116 25-288): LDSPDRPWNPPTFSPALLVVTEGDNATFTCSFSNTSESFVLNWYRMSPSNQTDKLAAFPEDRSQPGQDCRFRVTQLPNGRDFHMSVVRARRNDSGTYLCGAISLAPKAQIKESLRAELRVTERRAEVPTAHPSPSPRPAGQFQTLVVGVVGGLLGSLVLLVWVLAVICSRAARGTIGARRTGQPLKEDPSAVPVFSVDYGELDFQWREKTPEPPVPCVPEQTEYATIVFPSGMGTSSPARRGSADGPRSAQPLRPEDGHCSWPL
Description: Jurkat-PD-1 Cell Binding High-Content Screening Assay (CBA): Method 3 (Alexa fluor-647 labeled PD-L1-Ig). The conditions noted are these: Jurkat-PD-1 cells, Alexa fluor-647 labeled PD-L1-Ig 177 nM. The procedure, abridged:
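Jurkat cells over-expressing human PD-1 in RPMI/10% FCS were preincubated 2 h at 37 °C with compound, then exposed 1 h to Alexa fluor-647 labeled human PD-L1-Ig (177 nM final). Cells fixed in 4% paraformaldehyde with Hoechst 33342 and binding quantified by high-content imaging.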

The mark [1] stands for this setting: head μM, read-out: CBA Method 3 μM.

For the molecule `CC(=O)Nc1ccc(-c2ccc(C[C@@H]3NC(=O)[C@H](Cc4cccc(C)c4)NC(=O)[C@H](CC(=O)O)NC(=O)[C@H](Cc4ccc(-c5ccc(C(=O)O)cc5)cc4)NC(=O)[C@H](CN4CCOCC4)NC(=O)CSC[C@@H](C(=O)N[C@@H](CCN)C(N)=O)NC(=O)[C@H](Cc4cnc[nH]4)NC(=O)[C@H](C(C)(C)O)NC(=O)[C@H](CC4CCCCC4)NC(=O)[C@H](CCN)NC(=O)[C@@H](CC(C)C)NC(=O)[C@H](C)N(C)C(=O)[C@H](Cc4ccc(OCC(=O)O)cc4)NC(=O)[C@H](Cc4ccc(-c5ccccc5)cc4)NC3=O)cc2)cc1` [Example 5134] ({CH2CO}-[Ala(morpholin-4-yl)][Bip(4'-COOH)]D[Phe(3-Me)][Bip(4'-NHAc)][Bip]Y(Carboxymethyl)[NMeA][dL][Dab][Cha][Val(3-OH)]HC[Dab]-NH2; thioether N-14), under setting [1], the IC50 is 0.03 µM.
Turning to `CC(C)C[C@H]1NC(=O)[C@H](C)N(C)C(=O)[C@H](CCC(N)=O)NC(=O)[C@H](Cc2ccc(-c3ccccc3)cc2)NC(=O)[C@H](Cc2ccc(OCC(=O)O)cc2)NC(=O)[C@H](Cc2cccc(C(F)(F)F)c2)NC(=O)[C@H](CC(=O)O)NC(=O)[C@H](Cc2ccc(OCC(=O)O)cc2)NC(=O)[C@H]([C@@H](C)N)NC(=O)CSC[C@@H](C(=O)N[C@@H](CCN)C(N)=O)NC(=O)[C@H](CCCN)NC(=O)[C@H](C(C)C)NC(=O)[C@H](CC2CCCCC2)NC(=O)[C@H](CCN)NC1=O` [Example 5220] ({CH2CO}-[Abu(3R-NH2)]Y(Carboxymethyl)D[Phe(3-CF3)]Y(Carboxymethyl)[Bip]Q[NMeA][dL][Dab][Cha]V[Orn]C[Dab]-NH2; thioether N-14), where the note is “nM, read-out: CBA Method 3”, the IC50 worked out at 0.0024 µM.
`Cc1cccc(C[C@@H]2NC(=O)[C@H](CC(=O)O)NC(=O)[C@H](Cc3ccc(OCC(=O)O)cc3)NC(=O)[C@H](Cc3cc(F)c(F)cc3F)NC(=O)CSC[C@@H](C(=O)N[C@@H](CCN)C(N)=O)NC(=O)[C@H](CCCN)NC(=O)[C@H](C(C)C)NC(=O)[C@H](CC3CCCCC3)NC(=O)[C@H](CCN)NC(=O)[C@@H](CC(C)C)NC(=O)[C@H](C)N(C)C(=O)[C@H](CCC(N)=O)NC(=O)[C@H](Cc3ccc(-c4ccccc4)cc3)NC(=O)[C@H](Cc3ccc(C(=O)O)cc3)NC2=O)c1` [Example 5290] ({CH2CO}-[X53]Y(Carboxymethyl)D[Phe(3-Me)][Phe(4-COOH)][Bip]Q[NMeA][dL][Dab][Cha]V[Orn]C[Dab]-NH2; thioether N-14): the IC50 under setting [1] amounted to 0.1 µM.
`CC(=O)Nc1ccc(-c2ccc(C[C@@H]3NC(=O)[C@H](Cc4cccc(C(F)(F)F)c4)NC(=O)[C@H](CC(=O)O)NC(=O)[C@H](Cc4ccc(C(=O)O)cc4)NC(=O)[C@H](Cc4ccc(OCC(=O)O)cc4)NC(=O)CSC[C@@H](C(=O)N[C@@H](CCN)C(N)=O)NC(=O)[C@H](CCC(=O)O)NC(=O)[C@H](C(C)C)NC(=O)[C@H](CC4CCCCC4)NC(=O)[C@H](CCN)NC(=O)[C@@H](CC(C)C)NC(=O)[C@H](C)N(C)C(=O)[C@H](Cc4ccc(OCC(=O)O)cc4)NC(=O)[C@H](Cc4ccc(-c5ccccc5)cc4)NC3=O)cc2)cc1` [Example 5163] ({CH2CO}-Y(Carboxymethyl)[Phe(4-COOH)]D[Phe(3-CF3)][Bip(4'-NHAc)][Bip]Y(Carboxymethyl)[NMeA][dL][Dab][Cha]VEC[Dab]-NH2; thioether N-14): the IC50 (nM, read-out: CBA Method 3) amounted to 0.0025 µM.
For `Cc1cccc(C[C@@H]2NC(=O)[C@H](CC(=O)O)NC(=O)[C@H](Cc3ccc(OCC(=O)O)cc3)NC(=O)[C@H](Cc3ccccc3Cl)NC(=O)CSC[C@@H](C(=O)N[C@@H](CCN)C(N)=O)NC(=O)[C@H](CCCN)NC(=O)[C@H](C(C)C)NC(=O)[C@H](CC3CCCCC3)NC(=O)[C@H](CCN)NC(=O)[C@@H](CC(C)C)NC(=O)[C@H](C)N(C)C(=O)[C@H](CCC(N)=O)NC(=O)[C@H](Cc3ccc(-c4ccccc4)cc3)NC(=O)[C@H](Cc3ccc(C(=O)O)cc3)NC2=O)c1` [Example 5291] ({CH2CO}-[Phe(2-Cl)]Y(Carboxymethyl)D[Phe(3-Me)][Phe(4-COOH)][Bip]Q[NMeA][dL][Dab][Cha]V[Orn]C[Dab]-NH2; thioether N-14), the IC50 (nM, read-out: CBA Method 3) stood at 0.0002 µM.
